Experiments:
A549 cells = assay: Inhibitory effect on TGF-β1-induced EMT (E-Cad and N-Cad expression, Western blot); assay type: cell-based; conditions: 5 ng/mL TGF-β1, 48 hours, compared to Vhcl (TGF-β1), FIG. 5
Experimental: (§1) In order to confirm an effect of the compound according to the present invention on preventing or treating chronic obstructive pulmonary disease, an expression of an epithelial marker protein (E-Cad) and a mesenchymal marker protein (N-Cad) was analyzed. A549 cells were cultured in RPMI-1640 medium containing 10% fetal bovine serum (FBS) and 1% penicillin-streptomycin (P/S). The 1.5×10^5 cells were plated in a 6-well plate and incubated overnight. The cells were cultured with 5 ng/mL of recombinant human transforming growth factor beta 1 (TGF-β1) to induce an epithelial-to-mesenchymal transition (EMT). TGF-β1 was diluted with RPMI-1640 (1% FBS, 1% P/S) and incubated with the cells for 48 hours. The 500 µL of culture medium was loaded on a centrifugal filter (Amicon® Ultra-0.5 mL) and centrifuged at 14,000×g for 10 minutes. The enriched culture medium was boiled with 15 µL of 4X sample buffer at 100° C. for five minutes and analyzed by using the Western blot. The cells were lysed by using an RIPA buffer containing a protease inhibitor cocktail and a phosphatase inhibitor cocktail. A lysate was incubated on ice for three minutes and centrifuged at 13,000×g, 4° C. for 20 minutes. A supernatant was quantified by using a BCA protein assay kit and analyzed by the Western blot. The prepared sample was loaded on NuPAGE Novex 4-12% Bis-Tris gel and decomposed at 120 V Proteins were transferred to a nitrocellulose membrane by using an iBlot machine. The membrane was blocked by using EzBlock Chemi according to the manufacturer’s instructions. Antibodies such as E-cadherin (E-Cad), N-cadherin (N-cad), Fibronectin-EDA (FN-EDA), etc., were used. After reaction with a horseradish peroxidase (HRP)-conjugated secondary antibody, immunoreactive proteins were visualized by using Amersham® ECL select® Western blot detection reagent, and detected by ChemiDoc® MP imaging system. The intensity of the band was quantified with ImageJ software and normalized to β-actin.

FN-EDA in A549 cells = assay: FN-EDA protein reduction in TGF-β1-treated cells (Western blot); assay type: cell-based; conditions: 5 ng/mL TGF-β1, 48 hours, compared to Vhcl (TGF-β1), FIG. 6
Experimental: as §1
In order to confirm an effect of the compound according to the present invention on preventing or treating chronic obstructive pulmonary disease, an expression of FN-EDA, a key extracellular matrix (ECM) protein, was analyzed. The analysis was performed by the same method as described in Example 2 above.

[1] = system: mouse with induced COPD (smoking + Poly I:C); assay: Evaluation of immune cell infiltration in H&E-stained lung tissue sections, smoking + Poly I:C COPD model; assay type: in vivo, C57BL/6 mouse; conditions: 30 mg/kg P.O. Q.D.; compared to smoking + Poly I:C (SM+no drug); FIG. 2
Text: A C57BL/6 mouse (female, seven weeks old) was placed in a sealed smoking box and exposed to cigarette smoke for a certain period of time to induce COPD disease. Specifically, the mouse was put into the smoking box, after which a cigarette was lit and its filter was connected to a tube under a negative pressure, so that cigarette smoke could be continuously produced. Then, the smoking box was blocked, so that the mouse was forced to inhale the cigarette smoke while breathing in. The mouse was allowed to smoke for a total of four weeks. The mouse was exposed to one, two and four cigarettes once on the first, second and third days of the first week, respectively, and again exposed to four cigarettes twice and three times on the fourth and fifth days, respectively. After that, the mouse was exposed to four cigarettes three times a day for the remaining three weeks. […]
In order to confirm an effect of the compound according to the present invention on preventing or treating chronic obstructive pulmonary disease, a degree of immune cell infiltration was evaluated. […] According to a reference image of FIG. 1, a degree of cellular infiltration was determined as a score of 0 to 3, and the score was measured by observing slides for each group [FIG. 1: 0-none, 1-mild, 2-moderate, and 3-severe].

[2] = system: mouse with induced COPD (smoking + Poly I:C); assay: Analysis of bronchoalveolar lavage fluid (BAL fluid) cell counts, smoking + Poly I:C COPD model; assay type: in vivo, C57BL/6 mouse; conditions: 30 mg/kg P.O. Q.D.; compared with SM+no drug; FIG. 3
Text: (§2) A C57BL/6 mouse (female, seven weeks old) was placed in a sealed smoking box and exposed to cigarette smoke for a certain period of time to induce COPD disease. Specifically, the mouse was put into the smoking box, after which a cigarette was lit and its filter was connected to a tube under a negative pressure, so that cigarette smoke could be continuously produced. Then, the smoking box was blocked, so that the mouse was forced to inhale the cigarette smoke while breathing in. The mouse was allowed to smoke for a total of four weeks. The mouse was exposed to one, two and four cigarettes once on the first, second and third days of the first week, respectively, and again exposed to four cigarettes twice and three times on the fourth and fifth days, respectively. After that, the mouse was exposed to four cigarettes three times a day for the remaining three weeks. Poly I:C (polyinosinic:polycytidylic acid) was administered into a nasal cavity of the anesthetized mouse twice a week in the third and fourth weeks during induction of smoking, so that a model of smoking + Poly I:C COPD (chronic obstructive pulmonary disease) was induced.
(§3) In order to confirm a drug administration effect of the compound according to the present invention, mice with induced COPD were divided into each group of six mice, and each of the groups was is classified as shown in a following table 1 according to an administered substance [vehicle (Veh), compound 374 (SM+1), or compound 458 (SM+2)], a route of administration [oral administration (P.O.)], and an administration interval [daily (Q.D.)].
In order to confirm an effect of the compound according to the present invention on preventing or treating chronic obstructive pulmonary disease, bronchoalveolar lavage fluid (BAL fluid) was analyzed. The 2 mL of the BAL fluid was separated from the mice of each group and centrifuged. After that, the resulting fluid was suspended in a phosphate buffer solution (PBS), after which the number of total cells was counted, and 2 × 10^5 cells were attached to a slide through a cytospin. After staining with a diff-quick stain kit, the resulting cells were classified into macrophage, neutrophil, etc. based on the properties of the stained cells, so as to count a total of 300 cells, after which a rate of respective cells was calculated with regard to the number of total cells to make a comparison among the groups.

[3] = system: IL-6, IFN-γ, MCP-1, TNF-α; assay: Expression of inflammatory cytokines in lung tissue by real-time PCR, smoking + Poly I:C COPD model; assay type: in vivo, C57BL/6 mouse; conditions: 30 mg/kg P.O. Q.D., compared with SM+no drug, FIG. 4
Text: as §2, §3
In order to confirm an effect of the compound according to the present invention on preventing or treating chronic obstructive pulmonary disease, an expression of inflammatory cytokines in lung tissues was analyzed. Lungs were removed from mice of each group, after which RNA was isolated from the lung tissues. For each RNA, cDNA synthesis was performed by using a reverse transcriptase, after which an expression of inflammatory cytokine markers such as IL-6, IFN-y, MCP-1, and TNF-α was analyzed through real-time PCR, so as to compare a degree of induced inflammation among the groups. In this case, a sequence of a primer used in the experiment is the same as shown in a following table 2. (* P < 0.05, ** P < 0.01, and *** P < 0.001)

Structure (SMILES)	expression of E-Cad (epithelial marker protein) (A549 cells)	expression of N-Cad (mesenchymal marker protein) (A549 cells)	expression of key ECM protein FN-EDA (FN-EDA in A549 cells)	cellular infiltration score (0 to 3) in lung tissue [1]	number of macrophages in BAL fluid [2]	number of neutrophils in BAL fluid [2]	number of total cells in BAL fluid [2]	expression of IFN-y in lung tissue [3]	expression of IL-6 in lung tissue [3]	expression of MCP-1 in lung tissue [3]	expression of TNF-α in lung tissue [3]
O=C(NO)c1ccc(CN(C(=O)N2CCOCC2)c2cccc(C(F)(F)F)c2)cc1 [Compound 374, N-(4-(hydroxycarbamoyl)benzyl)-N-(3-(trifluoromethyl)phenyl)morpholine-4-carboxamide]	remarkable increase	remarkable decrease	remarkable decrease	–	–	–	–	–	–	–	–
O=C(NO)c1ccc(CN(C(=O)N2CCOCC2)c2ccc(F)cc2F)cc1 [Compound 413, N-(2,4-difluorophenyl)-N-(4-(hydroxycarbamoyl)benzyl)morpholine-4-carboxamide]	remarkable increase	remarkable decrease	remarkable decrease	–	–	–	–	–	–	–	–
O=C(NO)c1ccc(CN(C(=O)N2CCOCC2)c2ccc(F)c(Cl)c2)cc1 [Compound 458, N-(3-chloro-4-fluorophenyl)-N-(4-(hydroxycarbamoyl)benzyl)morpholine-4-carboxamide]	remarkable increase	remarkable decrease	remarkable decrease	–	–	–	–	–	–	–	–
COc1cccc(N(Cc2ccc(C(=O)NO)cc2)C(=O)N2CCOCC2)c1 [Compound 484, N-(4-(Hydroxycarbamoyl)Benzyl)-N-(3-Methoxyphenyl)Morpholine-4-Carboxamide]	remarkable increase	remarkable decrease	remarkable decrease	–	–	–	–	–	–	–	–
O=C(NO)c1ccc(CN(C(=O)N2CCOCC2)c2cccc(F)c2)cc1 [Compound 530]	remarkable increase	remarkable decrease	remarkable decrease	–	–	–	–	–	–	–	–
O=C(NO)c1ccc(CN(C(=O)N2CCCOCC2)c2cccc(F)c2)cc1 [Compound 652]	remarkable increase	remarkable decrease	remarkable decrease	–	–	–	–	–	–	–	–
O=C(NO)c1ccc(CN(C(=O)N2CCOCC2)c2cccc(C(F)(F)F)c2)cc1 [SM+1, N-(4-(hydroxycarbamoyl)benzyl)-N-(3-(trifluoromethyl)phenyl)morpholine-4-carboxamide]	–	–	–	decrease	decreased	decreased	decreased	decreased	decreased	decreased	decreased
O=C(NO)c1ccc(CN(C(=O)N2CCOCC2)c2ccc(F)c(Cl)c2)cc1 [SM+2, N-(3-chloro-4-fluorophenyl)-N-(4-(hydroxycarbamoyl)benzyl)morpholine-4-carboxamide]	–	–	–	decrease	decreased	decreased	decreased	decreased	decreased	decreased	decreased

Source: patent US20230248735A1, “COMPOSITIONS FOR PREVENTING OR TREATING CHRONIC OBSTRUCTIVE PULMONARY DISEASES (COPD)” (Chong Kun Dang Pharmaceutical Corp., priority 2019, published 2023)
